Test results taken from patent US6737383B1, “Herbicidal oxadiazolidines” (priority 1999, dated 2004).

Legend:
[1] = tested on: redroot pigweed; assay: Test C postemergence redroot pigweed; assay type: in vivo, Amaranthus retroflexus; settings: 0 to 100 scale, 0 no effect, 100 complete control
Summary of the method: (§1)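 Foliar postemergence treatment of greenhouse plants grown in 60:40 sandy loam:potting mix; compounds delivered in non-phytotoxic solvent with surfactant. Evaluation is visual, 0–100, after ~14–21 d.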

[2] = tested on: hairy beggarticks; assay: Test C postemergence hairy beggarticks; assay type: in vivo, Bidens pilosa; settings: 0 to 100 scale, 0 no effect, 100 complete control
Summary of the method: as §1

[3] = tested on: velvetleaf; assay: Test C postemergence velvetleaf; assay type: in vivo, Abutilon theophrasti; settings: 0 to 100 scale, 0 no effect, 100 complete control
Summary of the method: as §1

[4] = tested on: soybean; assay: Test C postemergence soybean; assay type: in vivo, Glycine max; settings: 0 to 100 scale, 0 no effect, 100 complete control
Summary of the method: as §1

[5] = tested on: purple nutsedge; assay: Test C postemergence purple nutsedge; assay type: in vivo, Cyperus rotundus; settings: 0 to 100 scale, 0 no effect, 100 complete control
Summary of the method: as §1

[6] = tested on: corn; assay: Test C postemergence corn; assay type: in vivo, Zea mays; settings: 0 to 100 scale, 0 no effect, 100 complete control
Summary of the method: as §1

[7] = tested on: lambsquarters; assay: Test C postemergence lambsquarters; assay type: in vivo, Chenopodium album; settings: 0 to 100 scale, 0 no effect, 100 complete control
Summary of the method: as §1

[8] = tested on: cocklebur; assay: Test C postemergence cocklebur; assay type: in vivo, Xanthium strumarium; settings: 0 to 100 scale, 0 no effect, 100 complete control
Summary of the method: as §1

[9] = tested on: eastern black nightshade; assay: Test C postemergence eastern black nightshade; assay type: in vivo, Solanum ptycanthum; settings: 0 to 100 scale, 0 no effect, 100 complete control
Summary of the method: as §1

[10] = tested on: Green foxtail; assay: Test D green foxtail; assay type: in vivo; settings: Preemergence, 0 to 100 scale
Summary of the method: (§2)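 Greenhouse pots, seeds in sandy loam; compounds formulated in non-phytotoxic solvent with surfactant; preemergence treatments went on the soil surface within one day of planting. Injury rated visually 14 to 21 days after application on a 0 (none) to 100 (complete control) scale.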

[11] = tested on: ladysthumb smartweed; assay: Test C postemergence ladysthumb smartweed; assay type: in vivo, Polygonum persicaria; settings: 0 to 100 scale, 0 no effect, 100 complete control
Summary of the method: as §1

[12] = tested on: giant foxtail; assay: Test C postemergence giant foxtail; assay type: in vivo, Setaria faberii; settings: 0 to 100 scale, 0 no effect, 100 complete control
Summary of the method: as §1

[13] = tested on: johnsongrass; assay: Test C postemergence johnsongrass; assay type: in vivo, Sorghum halepense; settings: 0 to 100 scale, 0 no effect, 100 complete control
Summary of the method: as §1

[14] = tested on: wild poinsettia; assay: Test C postemergence wild poinsettia; assay type: in vivo, Euphorbia heterophylla; settings: 0 to 100 scale, 0 no effect, 100 complete control
Summary of the method: as §1

[15] = tested on: arrowleaf sida; assay: Test C postemergence arrowleaf sida; assay type: in vivo, Sida rhombifolia; settings: 0 to 100 scale, 0 no effect, 100 complete control
Summary of the method: as §1

[16] = tested on: fall panicum; assay: Test C postemergence fall panicum; assay type: in vivo, Panicum dichotomiflorum; settings: 0 to 100 scale, 0 no effect, 100 complete control
Summary of the method: as §1

[17] = tested on: cotton; assay: Test C postemergence cotton; assay type: in vivo, Gossypium hirsutum; settings: 0 to 100 scale, 0 no effect, 100 complete control
Summary of the method: as §1

[18] = tested on: surinam grass; assay: Test C postemergence surinam grass; assay type: in vivo, Brachiaria decumbens; settings: 0 to 100 scale, 0 no effect, 100 complete control
Summary of the method: as §1

[19] = tested on: ivyleaf morningglory; assay: Test C postemergence ivyleaf morningglory; assay type: in vivo, Ipomoea hederacea; settings: 0 to 100 scale, 0 no effect, 100 complete control
Summary of the method: as §1

[20] = tested on: sourgrass; assay: Test D sourgrass; assay type: in vivo, Trichachne insularis; settings: Preemergence, 0 to 100 scale
Summary of the method: as §2

[21] = tested on: large crabgrass; assay: Test C postemergence large crabgrass; assay type: in vivo, Digitaria sanguinalis; settings: 0 to 100 scale, 0 no effect, 100 complete control
Summary of the method: as §1

[22] = tested on: common ragweed; assay: Test C postemergence common ragweed; assay type: in vivo, Ambrosia elatior; settings: 0 to 100 scale, 0 no effect, 100 complete control
Summary of the method: as §1

Compound: C=CCn1c(=O)on(C(=O)N(c2ccc(F)cc2)C(C)C)c1=O [Compound 146]
- Plant response rating, Redroot pigweed ([1]; Rate 140 g/ha): 0
- Plant response rating, Redroot pigweed ([1]; Rate 1120 g/ha): 20
- Plant response rating H. beggarticks ([2]; Rate 140 g/ha): 10
- Plant response rating H. beggarticks ([2]; Rate 280 g/ha): 20
- Plant response rating H. beggarticks ([2]; Rate 560 g/ha): 85
- Plant response rating H. beggarticks ([2]; Rate 1120 g/ha): 85
- Plant response rating, Velvetleaf ([3]; Rate 140 g/ha): 0
- Plant response rating, Velvetleaf ([3]; Rate 280 g/ha): 40
- Plant response rating, Velvetleaf ([3]; Rate 560 g/ha): 40
- Plant response rating, Velvetleaf ([3]; Rate 1120 g/ha): 60
- Plant response rating, Soybean ([4]; Rate 140 g/ha): 40
- Plant response rating, Soybean ([4]; Rate 280 g/ha): 50
- Plant response rating, Soybean ([4]; Rate 560 g/ha): 60
- Plant response rating, Soybean ([4]; Rate 1120 g/ha): 85
- Plant response rating, Purple nutsedge ([5]; Rate 140 g/ha): 0
- Plant response rating, Purple nutsedge ([5]; Rate 280 g/ha): 0
- Plant response rating, Purple nutsedge ([5]; Rate 560 g/ha): 0
- Plant response rating, Purple nutsedge ([5]; Rate 1120 g/ha): 0
- Plant response rating, Corn ([6]; Rate 140 g/ha): 0
- Plant response rating, Corn ([6]; Rate 280 g/ha): 0
- Plant response rating, Corn ([6]; Rate 560 g/ha): 5
- Plant response rating, Corn ([6]; Rate 1120 g/ha): 50
- Plant response rating Lambsquarters ([7]; Rate 140 g/ha): 0
- Plant response rating Lambsquarters ([7]; Rate 280 g/ha): 5
- Plant response rating Lambsquarters ([7]; Rate 560 g/ha): 10
- Plant response rating Lambsquarters ([7]; Rate 1120 g/ha): 50
- Plant response rating, Cocklebur ([8]; Rate 140 g/ha): 40
- Plant response rating, Cocklebur ([8]; Rate 280 g/ha): 40
- Plant response rating, Cocklebur ([8]; Rate 560 g/ha): 70
- Plant response rating, Cocklebur ([8]; Rate 1120 g/ha): 70
- Plant response rating E. blacknightsh ([9]; Rate 140 g/ha): 0
- Plant response rating E. blacknightsh ([9]; Rate 280 g/ha): 30
- Plant response rating E. blacknightsh ([9]; Rate 560 g/ha): 85
- Plant response rating E. blacknightsh ([9]; Rate 1120 g/ha): 85
- Plant response rating, Green foxtail ([10]; Rate 250 g/ha): 100
- Plant response rating, Green foxtail ([10]; Rate 500 g/ha): 100
- Plant response rating Ladysthumb ([11]; Rate 140 g/ha): 0
- Plant response rating Ladysthumb ([11]; Rate 280 g/ha): 10
- Plant response rating Ladysthumb ([11]; Rate 560 g/ha): 85
- Plant response rating, Giant foxtail ([12]; Rate 140 g/ha): 0
- Plant response rating, Giant foxtail ([12]; Rate 280 g/ha): 40
- Plant response rating, Giant foxtail ([12]; Rate 560 g/ha): 80
- Plant response rating, Giant foxtail ([12]; Rate 1120 g/ha): 85
- Plant response rating Johnsongrass ([13]; Rate 140 g/ha): 0
- Plant response rating Johnsongrass ([13]; Rate 280 g/ha): 30
- Plant response rating Johnsongrass ([13]; Rate 560 g/ha): 60
- Plant response rating Johnsongrass ([13]; Rate 1120 g/ha): 90
- Plant response rating Wild poinsettia ([14]; Rate 140 g/ha): 0
- Plant response rating Wild poinsettia ([14]; Rate 280 g/ha): 40
- Plant response rating Wild poinsettia ([14]; Rate 560 g/ha): 50
- Plant response rating Wild poinsettia ([14]; Rate 1120 g/ha): 70
- Plant response rating Arrowleaf sida ([15]; Rate 140 g/ha): 40
- Plant response rating Arrowleaf sida ([15]; Rate 280 g/ha): 45
- Plant response rating Arrowleaf sida ([15]; Rate 560 g/ha): 85
- Plant response rating Arrowleaf sida ([15]; Rate 1120 g/ha): 90
- Plant response rating Fall panicum ([16]; Rate 140 g/ha): 50
- Plant response rating Fall panicum ([16]; Rate 280 g/ha): 60
- Plant response rating Fall panicum ([16]; Rate 560 g/ha): 90
- Plant response rating Fall panicum ([16]; Rate 1120 g/ha): 90
- Plant response rating Cotton ([17]; Rate 140 g/ha): 40
- Plant response rating Cotton ([17]; Rate 280 g/ha): 65
- Plant response rating Cotton ([17]; Rate 560 g/ha): 65
- Plant response rating Cotton ([17]; Rate 1120 g/ha): 70
- Plant response rating Surinam grass ([18]; Rate 140 g/ha): 0
- Plant response rating Surinam grass ([18]; Rate 280 g/ha): 5
- Plant response rating Surinam grass ([18]; Rate 560 g/ha): 50
- Plant response rating Surinam grass ([18]; Rate 1120 g/ha): 95
- Plant response rating I. morningglory ([19]; Rate 140 g/ha): 0
- Plant response rating I. morningglory ([19]; Rate 280 g/ha): 20
- Plant response rating I. morningglory ([19]; Rate 560 g/ha): 20
- Plant response rating I. morningglory ([19]; Rate 1120 g/ha): 50
- Plant response rating, Sourgrass ([20]; Rate 16 g/ha, 0 no injury, 100 complete control): 0
- Plant response rating, Sourgrass ([20]; Rate 32 g/ha, 0 no injury, 100 complete control): 98
- Sourgrass plant response rating ([20]; Rate 64 g/ha, 0 no injury, 100 complete control): 100
- Sourgrass plant response rating ([20]; Rate 125 g/ha, 0 no injury, 100 complete control): 100
- Plant response rating, Sourgrass ([20]; Rate 250 g/ha): 100
- Plant response rating, Sourgrass ([20]; Rate 500 g/ha): 100
- Plant response rating Large crabgrass ([21]; Rate 140 g/ha): 0
- Plant response rating Large crabgrass ([21]; Rate 280 g/ha): 60
- Plant response rating Large crabgrass ([21]; Rate 560 g/ha): 60
- Plant response rating Large crabgrass ([21]; Rate 1120 g/ha): 80
- Plant response rating Common ragweed ([22]; Rate 140 g/ha): 10
- Plant response rating Common ragweed ([22]; Rate 560 g/ha): 30
- Plant response rating Common ragweed ([22]; Rate 1120 g/ha): 30
